# Reference: US12109218B2, “Compositions of grapiprant and methods for using the same” (ARATANA THERAPEUTICS, INC., priority 2014, dated 2024)
# Experiments:
# [1] = tested on: mechanical hyperalgesia induced by carrageenan model; details: cited from earlier work
# [2] = tested on: meniscal release model of osteoarthritis; test: Meniscal release model of osteoarthritis in dogs (Example 8); type: in vivo
# Experimental: Twenty intact adult female hounds underwent surgical meniscal release of the right stifle and were maintained for at least 8 weeks to allow osteoarthritis to develop. […] Animals were randomized into three groups: negative control (n=6), positive control (n=7) treated with 5 mg/kg firocoxib daily, and grapiprant (n=7) dosed once daily at 30 mg/kg. Dosing was based on baseline bodyweight.
# Baseline physical exams, bodyweights, hematology, serum chemistry and urinalysis were obtained on study Day −1 and repeated on Day 13. Orthopedic assessments were conducted on Day −1, Day 2, Day 6, and Day 13, including a kinetics assessment using the GAITRite system to determine left hindlimb: right hindlimb ratios for peak pressure, stride length, step length, and stance time, a 5-point scale lameness evaluation, VAS assessments of right hindlimb function, right stifle pain and effusion, and comfortable range of motion measurements of both stifles using a goniometer.
# onychectomy in cats = test: Onychectomy pain model in cats (Example 5); type: in vivo, cat; details: vs placebo
# Text: The objective of this pilot study was to validate that this model/pain scoring system can differentiate positive from negative control animals in controlling the pain and inflammation of onychectomy and to test the effectiveness of a single dose of grapiprant in controlling the pain and inflammation associated with onychectomy in cats.
# Following an acclimation period of 7, 8, or 9 days, a total of 30 adult cats were randomly divided between three treatment groups with ten animals assigned to each group. All animals were randomly assigned to a given surgery day such that within each day, an equal number of cats was from each treatment group. Within each day, the order of surgery was also randomized. […]
# Surgical Procedure. […] During surgical procedures, each animal was monitored for at least heart rate and respiratory rate. […] Following surgery, each animal was periodically monitored until full recovery. […] Extubation time (time zero=T0) was recorded as the end of surgery.
# All study animals were scored for sedation and analgesia the following schedule in Table 10. […]
# Analgesia scores were given at specified time points during the study. […] Analgesia was scored by the same assessor during the first 8 hours of the study. […]
# Results. The cat was evaluated as the experimental unit. Differences between treatment groups were evaluated at alpha of 0.05. […]
# [3] = Pharmacokinetics of capsule, suspension and tablets in dogs (Example 3); type: in vivo, dog; details: male dogs; for AUC(0-t) / AUC(0-inf) / Cmax / Tmax / half-life: dog, mean; for AUC(0-t): in vivo; for AUC(0-inf) / Cmax / Tmax / half-life: serum; for AUC0-∞/Dose / Cmax/Dose: dose-normalized mean
# Experimental: The objective of this study was to compare the pharmacokinetic profile of several tablet formulations of grapiprant to capsule and aqueous methylcellulose suspension formulations of grapiprant with 20-mg doses. Appropriate amounts of the test article/excipient mixture were placed into gelatin capsules to provide each animal with 20 mg of grapiprant. As the grapiprant content in the excipient blend was 45% of the mixture weight, the total weight of the blend in each capsule was 0.0440 g. The weight tolerance was within ±0.005 g of the nominal capsule content weight.
# For the aqueous suspensions (Group 2), the vehicle was 0.5% methyl cellulose (400 centipoise) in water. A 0.3-mg/mL suspension of grapiprant was prepared by adding grapiprant to a calibrated beaker and adding about 60-90% of the 0.5% aqueous methylcellulose to the beaker. A homogenizer was used to blend the material. A stir bar was added to the beaker, and the suspension was stirred for about 5 minutes. The stir bar was removed temporarily to adjust the volume with additional vehicle, and then the suspension was stirred for another 5 minutes before being transferred to a labeled dosing container. The formulation was continuously stirred at the time of dose administration.
# Statistical analyses were conducted to determine differences in Cmax, Tmax, and AUCmax Values were normalized by mg/kg, and group means and standard deviations were calculated for numeric data. The actual administered doses ranged from 1.81 to 2.82 mg/kg, and averaged 2.2 mg/kg. No animal was found dead or deemed moribund during the study. All animals were normal at the scheduled observation time of 2 hours postdose.
# [4] = Day 0, Group 1: single oral 20 mg API in capsule
# [5] = Day 0, Group 2: single oral 2 mg/kg, 0.3 mg/mL methylcellulose suspension
# [6] = Day 0, Group 1: 20 mg API in capsule
# [7] = Day 0, Group 2: methylcellulose suspension
compound,measurement,setting,value
"CCc1nc2c(C)nc(C)cc2n1-c1ccc(CCNC(=O)NS(=O)(=O)c2ccc(C)cc2)cc1 [grapiprant, N-{2-[4-(2-ethyl-4,6-dimethyl-1H-imidazo[4,5-c]pyridin-1-yl)phenyl]ethyl}-N′-[(4-methylphenyl)sulfonyl]urea]",effect on mechanical hyperalgesia,[1],significantly reduces mechanical hyperalgesia
same,safety,[2]; 30 mg/kg,considered safe for at least a 14-day treatment period
same,lameness scores,[2]; 30 mg/kg once daily,lower lameness scores in the grapiprant treated group on Day 2 compared to the negative and positive control groups
same,pain scores,[2]; 30 mg/kg once daily,statistically significant lower pain scores on Days 2 and 6 compared to baseline
same,"serum total protein, albumin, and globulin",[2]; 30 mg/kg once daily,"decreases in mean total protein, albumin, and globulin"
same,amelioration of lameness and pain,[2]; 30 mg/kg over 14 days,effective at day 2 in ameliorating lameness and pain
same,sedation scores,onychectomy in cats; 20 mg tablet Formulation A34 about 30 minutes before onychectomy,without an apparent effect on sedation scores
same,analgesia scores,"onychectomy in cats; oral tablet about 30 minutes before onychectomy (grapiprant: 20 mg tablet Formulation A34, Day 0 only; Onsior: 6 mg, Days 0-2)",decreased analgesia scores (reduced pain)
same,AUC(0-t),[3]; [4],1580 ng·h/mL
same,AUC(0-t),[3]; [5],1650 ng·h/mL
same,AUC(0-inf),[3]; [4],1640 ng·h/mL
same,Cmax,[3]; [4],804 ng/mL
same,Tmax,[3]; [4],1.08 h
same,half-life,[3]; [4],5.5 h
same,AUC(0-inf),[3]; [5],1870 ng·h/mL
same,Cmax,[3]; [5],751 ng/mL
same,Tmax,[3]; [5],0.786 h
same,half-life,[3]; [5],4.1 h
same,AUC0-∞/Dose,[3]; [6],724 (hr*ng/mL)/(mg/kg)
same,Cmax/Dose,[3]; [6],359 (ng/mL)/(mg/kg)
same,AUC0-∞/Dose,[3]; [7],937 (hr*ng/mL)/(mg/kg)
same,Cmax/Dose,[3]; [7],376 (ng/mL)/(mg/kg)
